According to US6716833B2, “Acetylenic α-amino acid-based sulfonamide hydroxamic acid tace inhibitors” (priority 1999, dated 2004):
Where a name gives a salt, the structure may show the parent alone. Read-outs that look alike come from different tables or passages of the source.

Key:
[1] = molecular target: MMP-13 (Homo sapiens, UniProt P45452); assay: MMP-13 inhibition (thiopeptide or fluorescent peptide substrate); assay type: biochemical; conditions: read-out: MMP-13 IC50
[2] = molecular target: TNF-α converting enzyme (TACE) (Homo sapiens, UniProt P78536); assay: TACE inhibition (fluorescent peptidyl substrate); assay type: biochemical
[3] = test system: THP-1 cells; assay: THP-1 soluble protein assay, soluble TNF-α (ELISA); assay type: cell-based, human; conditions: for THP % Inhibition @ 3 μM: THP-1 cells
[4] = molecular target: T1, MMP-1 (Homo sapiens, UniProt P03956); assay: MMP-1 inhibition (thiopeptide or fluorescent peptide substrate); assay type: biochemical; conditions: read-out: MMP-1 IC50
T1 sequence (P03956 100-469): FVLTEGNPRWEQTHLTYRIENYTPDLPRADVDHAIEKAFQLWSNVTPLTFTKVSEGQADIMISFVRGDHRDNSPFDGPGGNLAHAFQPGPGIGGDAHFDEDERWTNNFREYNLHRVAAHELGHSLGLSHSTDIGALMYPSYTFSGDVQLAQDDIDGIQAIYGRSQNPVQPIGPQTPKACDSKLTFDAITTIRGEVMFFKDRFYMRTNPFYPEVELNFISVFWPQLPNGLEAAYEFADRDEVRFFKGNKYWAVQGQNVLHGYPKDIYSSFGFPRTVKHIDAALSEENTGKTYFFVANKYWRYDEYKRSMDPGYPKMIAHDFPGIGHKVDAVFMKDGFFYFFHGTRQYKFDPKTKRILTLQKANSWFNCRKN

[5] = molecular target: MMP-9 (Homo sapiens, UniProt P14780); assay: MMP-9 inhibition (thiopeptide or fluorescent peptide substrate); assay type: biochemical; conditions: read-out: MMP-9 IC50
Chain of MMP-9 (P14780 94-707): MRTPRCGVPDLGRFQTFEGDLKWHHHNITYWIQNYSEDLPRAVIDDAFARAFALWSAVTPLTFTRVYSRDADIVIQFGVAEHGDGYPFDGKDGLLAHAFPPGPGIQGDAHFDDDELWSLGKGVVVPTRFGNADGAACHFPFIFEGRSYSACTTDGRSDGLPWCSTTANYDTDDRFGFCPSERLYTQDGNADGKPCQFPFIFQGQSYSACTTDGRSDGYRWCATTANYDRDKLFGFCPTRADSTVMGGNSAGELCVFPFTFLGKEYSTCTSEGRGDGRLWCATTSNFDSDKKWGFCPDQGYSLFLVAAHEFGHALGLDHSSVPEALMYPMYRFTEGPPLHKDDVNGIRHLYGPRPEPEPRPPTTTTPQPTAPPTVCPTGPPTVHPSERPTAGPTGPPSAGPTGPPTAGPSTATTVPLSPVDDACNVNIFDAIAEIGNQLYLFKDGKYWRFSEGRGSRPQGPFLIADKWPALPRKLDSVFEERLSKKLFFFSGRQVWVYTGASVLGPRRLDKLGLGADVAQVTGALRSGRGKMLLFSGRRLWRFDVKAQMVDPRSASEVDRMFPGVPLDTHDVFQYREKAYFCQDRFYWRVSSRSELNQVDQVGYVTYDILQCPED

Chain of TNF-α converting enzyme (TACE) (P78536 215-824, species assumed): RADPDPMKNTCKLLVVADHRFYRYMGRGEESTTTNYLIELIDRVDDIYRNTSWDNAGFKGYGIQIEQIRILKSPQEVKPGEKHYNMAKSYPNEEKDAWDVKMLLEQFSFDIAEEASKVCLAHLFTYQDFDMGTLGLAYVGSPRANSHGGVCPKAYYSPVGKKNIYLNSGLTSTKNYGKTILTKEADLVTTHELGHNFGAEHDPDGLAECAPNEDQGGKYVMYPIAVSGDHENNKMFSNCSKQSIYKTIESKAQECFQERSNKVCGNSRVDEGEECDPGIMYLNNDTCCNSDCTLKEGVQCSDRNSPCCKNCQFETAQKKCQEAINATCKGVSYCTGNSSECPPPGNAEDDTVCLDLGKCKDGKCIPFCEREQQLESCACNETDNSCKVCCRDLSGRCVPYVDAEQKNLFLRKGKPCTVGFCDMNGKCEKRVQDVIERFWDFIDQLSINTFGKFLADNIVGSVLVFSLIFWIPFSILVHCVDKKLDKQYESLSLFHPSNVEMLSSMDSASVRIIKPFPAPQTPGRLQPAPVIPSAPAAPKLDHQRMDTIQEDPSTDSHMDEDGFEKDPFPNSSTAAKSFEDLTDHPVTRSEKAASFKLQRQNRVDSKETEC

| Molecule | IC50 [1] [nM] | IC50 ([2]; read-out: TACE IC50) [nM] | IC50 [4] [nM] | IC50 [5] [nM] | melting point | IC50 ([1]; Table 9) [nM] | IC50 ([5]; Table 9) [nM] | IC50 ([2]; TACE IC50) [nM] | THP % Inhibition @ 3 μM [3] [%] | inhibition at 3 µM ([3]; Homo sapiens, THP-1, read-out: THP % Inhibition @ 3 μM) [%] | IC50 ([4]; Table 9) [nM] | IC50 ([2]; Table 9, read-out: TACE IC50) [nM] |
| --- | --- | --- | --- | --- | --- | --- | --- | --- | --- | --- | --- | --- |
| 3-(Benzylthio)-2-[[[4-(2-butynyloxy)phenyl]sulfonyl]methylamino]-N-hydroxypropanamide [Example 156] | 4.5 | 4.8 | – | – | – | – | – | – | 75 | – | – | – |
| CC#CCOc1ccc(S(=O)(=O)N(CC(=O)NO)Cc2cccnc2)cc1 [Example 23, 2-[(4-but-2-ynyloxy-Benzenesulfonyl)-pyridin-3-ylmethyl-amino]-N-hydroxyacetamide Hydrochloride] | – | – | – | – | – | – | – | – | – | 63 | – | – |
| CC#CCOc1ccc(S(=O)(=O)N(Cc2cccnc2)C2(C(=O)NO)CCCCC2)cc1 [Example 137, 1-[{[4-(2-Butynyloxy)phenyl]sulfonyl}(3-pyridinylmethyl)amino]N-hydroxycyclohexanecarboxamide] | 48 | 191 | 482 | 79 | 179 to 181 °C | – | – | – | – | – | – | – |
| CC#CCOc1ccc(S(=O)(=O)N(C)C(C(=O)NO)C(C)(C)SCCCN2CCOCC2)cc1 (stereo not drawn) [Example 146] | 3.6 | 132 | 13 | 5.3 | 48 to 52 °C | – | – | – | – | – | – | – |
| CC#CCOc1ccc(S(=O)(=O)N(C)C(C(=O)NO)C(C)(C)SC)cc1 (stereo not drawn) [Example 149, 2-[(4-but-2-ynyloxy-Benenesulfonyl)-methyl-amino]-N-hydroxy-3-methyl-3-methylsulfanyl-butyramide] | 4.6 | 29 | 17 | 13 | 132 to 135 °C | – | – | – | – | – | – | – |
| CC#CCOc1ccc(S(=O)(=O)N(C)C(C(=O)NO)C(C)(C)SCC)cc1 (stereo not drawn) [Example 150, 2-[(4-but-2-ynyloxy-Benenesulfonyl)-methyl-amino]-N-hydroxy-3-methyl-3-ethylsulfanyl-butyramide] | 9.3 | 51 | 25 | – | – | – | – | – | 86 | – | – | – |
| CC#CCOc1ccc(S(=O)(=O)N(Cc2cccnc2)C(CSCc2ccccc2)C(=O)NO)cc1 (stereo not drawn) [Example 157, 3-(Benzylthio)-2-[[[4-(2-butynyloxy)phenyl]sulfonyl]pyridin-3-ylmethylamino]-N-hydroxypropanamide] | 3.8 | 98 | 111 | 32 | 74 to 78 °C | – | – | – | – | – | – | – |
| CC#CCOc1ccc(S(=O)(=O)N(C)C(C(=O)NO)c2ccc(OCCN(C)C(=O)OC(C)(C)C)cc2)cc1 (stereo not drawn) [Example 191, tert-Butyl(2-{4-[1-({[4-(2-Butynyloxy)phenyl]sulfonyl}(methyl)amino)-2-(hydroxyamino)-2-oxoethyl)phenoxy]ethyl)-(methyl)carbamate] | 60 | 64 | 1150 | 37 | 62 °C (dec.) | – | – | – | – | – | – | – |
| CC#CCOc1ccc(S(=O)(=O)NC(C(=O)NO)c2ccc(OCCN3CCN(C(=O)OC(C)(C)C)CC3)cc2)cc1 (stereo not drawn) [Example 202, tert-Butyl 4-(2-{4-[1-({[4-(2-Butynyloxy)phenyl]sulfonyl}amino)-2-(hydroxyamino)-2-oxoethyl)phenoxy]ethyl)-1-piperazinecarboxylate] | 345 | 113 | > 10000 | – | 92 to 95 °C | – | – | – | – | – | – | – |
| CC#CCOc1ccc(S(=O)(=O)NC(C(=O)NO)c2ccc(OCCN(C)C(=O)OC(C)(C)C)cc2)cc1 (stereo not drawn) [Example 203, tert-Butyl 4-(2-{4-[1-({[4-(2-Butynyloxy)phenyl]sulfonyl}amino)-2-(hydroxyamino)-2-oxoethyl)phenoxy]ethyl)-(methyl)carbamate] | 126 | 49 | > 10000 | 859 | 90 to 92 °C | – | – | – | – | – | – | – |
| CC#CCOc1ccc(S(=O)(=O)N(C)C(C(=O)NO)c2ccc(Cl)cc2)cc1 (stereo not drawn) [Example 212, 2-[{[4-(2-Butynyloxy)phenyl]sulfonyl}(methyl)amino]-2-(4-chlorophenyl)-N-hydroxyacetamide] | 36 | 62 | 798 | – | 170 to 172 °C | – | – | – | – | – | – | – |
| CC#CCOc1ccc(S(=O)(=O)N(C)C(CCCSc2ccc(Cl)cc2)C(=O)NO)cc1 (stereo not drawn) [Example 213, 2-[{[4-(2-Butynyloxy)phenyl]sulfonyl}(methyl)amino]-5[(4-chlorophenyl)sulfanyl]-N-hydroxypentanamide] | 9 | 210 | 453 | – | 144 to 145.5 °C | – | – | – | – | – | – | – |
| CC#CCOc1ccc(S(=O)(=O)N2CCSC3(CCCC3)C2C(=O)NO)cc1 (stereo not drawn) [Example 236] | – | – | – | – | 206 to 208 °C | 11 | – | – | – | – | 24 | 43 |

Now from value to molecule, other results behind:

| IC50 [1] [nM] | IC50 ([2]; read-out: TACE IC50) [nM] | IC50 [4] [nM] | IC50 [5] [nM] | melting point | IC50 ([1]; Table 9) [nM] | IC50 ([5]; Table 9) [nM] | IC50 ([2]; TACE IC50) [nM] | Molecule | THP % Inhibition @ 3 μM [3] [%] | inhibition at 3 µM ([3]; Homo sapiens, THP-1, read-out: THP % Inhibition @ 3 μM) [%] | IC50 ([4]; Table 9) [nM] | IC50 ([2]; Table 9, read-out: TACE IC50) [nM] |
| --- | --- | --- | --- | --- | --- | --- | --- | --- | --- | --- | --- | --- |
| 15 | 23 | 169 | 30 | 195 to 197 °C | – | – | – | CC#CCOc1ccc(S(=O)(=O)N(C)[C@@H](C(=O)NO)[C@H]2CC[C@H](O)CC2)cc1 [Example 130] | – | – | – | – |
| 1630 | 574 | 682 | 3750 | 89 to 92 °C | – | – | – | CC#CCOc1ccc(S(=O)(=O)N(C)C2(C(=O)NO)CCCCC2)cc1 [Example 136, 1-[{[4-(2-Butynyloxy)phenyl]sulfonyl}(methyl)amino]-N-hydroxycyclohexanecarboxamide] | – | – | – | – |
| 7.6 | 101 | 17 | 8.3 | 110 to 115 °C | – | – | – | CC#CCOc1ccc(S(=O)(=O)N(C)C(C(=O)NO)C(C)(C)SCCN2CCN(C)CC2)cc1 (stereo not drawn) [Example 141] | – | – | – | – |
| 14 | 131 | 72 | 10 | 55 to 57 °C | – | – | – | CC#CCOc1ccc(S(=O)(=O)N(C)C(C(=O)NO)C(C)(C)SCCN(CC)CC)cc1 (stereo not drawn) [Example 142, 2-({[4-(2-Butynyloxy)phenyl]sulfonyl)(methyl)amino]-N-hydroxy-3-methyl-3-{[2-(diethylamino)ethyl]sulfanyl}butanamide] | – | – | – | – |
| 5.3 | 157 | 21 | 5.3 | 58 to 62 °C | – | – | – | CC#CCOc1ccc(S(=O)(=O)N(C)C(C(=O)NO)C(C)(C)SCCCN2CCN(C)CC2)cc1 (stereo not drawn) [Example 147, 2-({[4-(2-Butynyloxy)phenyl]sulfonyl)(methyl)amino]-N-hydroxy-3 Methyl-3-{[2(4-methyl-1-ethyl-1-piperazinyl)propyl]sulfanyl}butanamide] | – | – | – | – |
| 2 | 160 | 13 | 5.5 | 156 to 158 °C | – | – | – | CC#CCOc1ccc(S(=O)(=O)N(C)C(C(=O)NO)C(C)(C)SCc2ccccc2)cc1 (stereo not drawn) [Example 153, 2-[(4-but-2-ynyloxy-Benenesulfonyl)-methyl-amino]-N-hydroxy-3-methyl-3-benzylsulfanyl-butyramide] | – | – | – | – |
| 28 | 122 | > 1000 | – | 50 to 55 °C | – | – | – | CC#CCOc1ccc(S(=O)(=O)N(C)C(C(=O)NO)c2ccc(OCCCNC(=O)OCCCC)cc2)cc1 (stereo not drawn) [Example 195, Butyl 3-{4-[1-[{[4-(2-Butynyloxy)phenyl]sulfonyl}(methyl)amino]-2-(hydroxyamino)-2-oxoethyl]phenoxy}propylcarbamate] | – | – | – | – |
| 24 | 25 | 569 | – | 65 to 70 °C | – | – | – | CC#CCOc1ccc(S(=O)(=O)N(C)C(C(=O)NO)c2ccc(OCCCNS(C)(=O)=O)cc2)cc1 (stereo not drawn) [Example 197, 2-[{[4-(2-Butynyloxy)phenyl]sulfonyl}(methyl)amino]-N-hydroxy-2-(4-{3-[(methylsulfonyl)amino]propoxy}phenyl)acetamide] | – | – | – | – |
| 11 | 62 | 834 | – | 135 °C (dec.) | – | – | – | CC#CCOc1ccc(S(=O)(=O)N(C)C(C(=O)NO)c2ccc(OCCCNC(=O)Nc3ccccc3)cc2)cc1 (stereo not drawn) [Example 198, 2-(4-{3-[(Anilinocarbonyl)amino]propoxy}phenyl)-2-[{[4-(2-butynyloxy)phenyl]sulfonyl}(methyl)amino]-N-hydroxyacetamide] | – | – | – | – |
| 147 | 33 | > 10000 | – | 80 to 86 °C | – | – | – | CC#CCOc1ccc(S(=O)(=O)NC(C(=O)NO)c2ccc(OCCN3CCOCC3)cc2)cc1 (stereo not drawn) [Example 206, 2-({[4-(2-Butynyloxy)phenyl]sulfonyl}amino)-N-hydroxy-2-{4-[2-(4-morpholinyl)ethoxy]phenyl}acetamide] | – | – | – | – |
| – | – | – | – | 150 to 154 °C | 12 | 21 | – | CC#CCOc1ccc(S(=O)(=O)N2CCSCC2C(=O)NO)cc1 (stereo not drawn) [Example 239] | – | – | – | 2.9 |
| – | – | – | – | 68 to 72 °C | 26 | 170 | 4.5 | CC#CCOc1ccc(S(=O)(=O)N2CCOCC2C(=O)NO)cc1 (stereo not drawn) [Example 240, 4-([4-(2-Butynyloxy)phenyl]sulfonyl}-N-hydroxy-3-morpholinecarboxamide] | – | – | – | – |
